In ChEMBL document CHEMBL1201862, “PubChem BioAssay data set” (2004):
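Method: 48-hour compound exposure of cells in 96-well plates, five concentrations, linear interpolation of endpoints. At the GI50, growth is halved.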 Activity calls are given as the source filed them. No stated cut-off is given here; in the data, active = GI50 up to about 1.1 µM and inactive = higher.

How the values were obtained:
Test in all cases: growth of human tumour cells (NCI), 48 h
A549 = system: A549
CAKI-1 = system: CAKI-1
HCT-116 = system: HCT-116
HL-60 = system: HL-60
LOX IMVI = system: LOX IMVI
M19-MEL = system: M19-MEL
NCI-H226 = system: NCI-H226
NCI-H460 = system: NCI-H460
OVCAR-5 = system: OVCAR-5
SF-268 = system: SF-268
SF-539 = system: SF-539
SK-MEL-5 = system: SK-MEL-5
SNB-19 = system: SNB-19
SNB-75 = system: SNB-75
UACC-257 = system: UACC-257

Measured: GI50

C1=Cc2nc1c(-c1ccncc1)c1ccc([n-]1)c(-c1ccncc1)c1nc(c(-c3ccncc3)c3ccc([n-]3)c2-c2ccncc2)C=C1.[Zn+2]
inactive: A549 > 100 µM | CAKI-1 > 100 µM | HCT-116 > 100 µM | HL-60 > 100 µM | LOX IMVI > 100 µM | M19-MEL > 100 µM | NCI-H226 > 100 µM | NCI-H460 > 100 µM | OVCAR-5 > 100 µM | SF-268 > 100 µM | SF-539 > 100 µM | SK-MEL-5 > 100 µM | SNB-19 > 100 µM | SNB-75 > 100 µM | UACC-257 > 100 µM

O=C(COc1ccccc1Cl)N1N=C(c2ccc(Cl)cc2)CC1(O)c1ccccc1 (stereo not given)
inactive: A549 > 100 µM | CAKI-1 > 100 µM | HCT-116 > 100 µM | HL-60 > 100 µM | LOX IMVI > 100 µM | M19-MEL > 100 µM | NCI-H226 > 100 µM | NCI-H460 > 100 µM | OVCAR-5 > 100 µM | SF-268 > 100 µM | SF-539 > 100 µM | SNB-19 > 100 µM | SNB-75 > 100 µM | UACC-257 > 100 µM

Cc1ccc(NCC(=O)N2CC(=O)Nc3ccccc32)c(C)c1
inactive: A549 > 100 µM | CAKI-1 > 100 µM | HCT-116 > 100 µM | HL-60 > 100 µM | LOX IMVI > 100 µM | M19-MEL > 100 µM | NCI-H226 > 100 µM | NCI-H460 > 100 µM | OVCAR-5 > 100 µM | SF-268 > 100 µM | SF-539 > 100 µM | SK-MEL-5 > 100 µM | SNB-19 > 100 µM | SNB-75 > 100 µM | UACC-257 > 100 µM

COc1cc(/C=C2\NC(=S)C3Cc4c(OC)c(C)c(OC)c(OC)c4C2N3C)c(OC)c(C)c1OC (stereo not given)
inactive: A549 50.6 µM | CAKI-1 58.1 µM | HCT-116 33.7 µM | HL-60 25.2 µM | LOX IMVI 48 µM | M19-MEL 45.6 µM | NCI-H226 22.6 µM | NCI-H460 14.9 µM | OVCAR-5 > 100 µM | SF-268 95.3 µM | SF-539 > 100 µM | SK-MEL-5 24.5 µM | SNB-19 65.3 µM | SNB-75 > 100 µM | UACC-257 22.2 µM

COc1ccccc1/C=N/C12CC3CC(CC(C3)C1)C2
inactive: A549 > 100 µM | CAKI-1 > 100 µM | HCT-116 > 10 µM | HL-60 73.6 µM | LOX IMVI > 100 µM | M19-MEL > 100 µM | NCI-H226 > 10 µM | NCI-H460 > 100 µM | OVCAR-5 > 100 µM | SF-268 > 100 µM | SF-539 > 100 µM | SK-MEL-5 81.8 µM | SNB-19 > 100 µM | SNB-75 86.9 µM | UACC-257 > 100 µM

COC(=O)C(CCCCCCCC(C(=O)OC)C1=Nc2nnc(N)n2C1=O)C1=Nc2nnc(N)n2C1=O (stereo not given)
inactive: A549 > 100 µM | CAKI-1 11.2 µM | HCT-116 > 100 µM | HL-60 > 100 µM | LOX IMVI > 100 µM | M19-MEL 26.1 µM | NCI-H226 > 100 µM | NCI-H460 > 100 µM | OVCAR-5 > 100 µM | SF-268 > 100 µM | SF-539 84.3 µM | SK-MEL-5 > 100 µM | SNB-19 > 100 µM | SNB-75 48.3 µM | UACC-257 > 100 µM

COc1ccc(C(=O)O/N=C2/CCCCC2CN(C)C)cc1 (stereo not given)
inactive: A549 > 100 µM | CAKI-1 > 100 µM | HCT-116 > 100 µM | HL-60 > 100 µM | LOX IMVI > 100 µM | M19-MEL > 100 µM | NCI-H226 > 100 µM | NCI-H460 > 100 µM | OVCAR-5 > 100 µM | SF-268 > 10 µM | SF-539 > 100 µM | SK-MEL-5 > 100 µM | SNB-75 > 100 µM | UACC-257 > 100 µM

CSC1CC2C(CC1(C)SC)C2(C)C (stereo not given)
inactive: A549 32.7 µM | CAKI-1 > 100 µM | HL-60 20.2 µM | LOX IMVI 30.7 µM | M19-MEL 37.2 µM | NCI-H226 24.7 µM | NCI-H460 23.9 µM | OVCAR-5 40.8 µM | SF-268 > 100 µM | SF-539 > 100 µM | SK-MEL-5 24.4 µM | SNB-19 46.9 µM | SNB-75 23.2 µM | UACC-257 29.9 µM

COc1cc2c(Cc3cc(OCc4ccccc4)ccc3N)nccc2c(OC)c1OC
inactive: A549 > 10 µM | HCT-116 > 10 µM | HL-60 > 10 µM | LOX IMVI > 10 µM | M19-MEL > 10 µM | NCI-H226 > 10 µM | NCI-H460 > 10 µM | OVCAR-5 > 10 µM | SF-268 > 10 µM | SF-539 > 10 µM | SK-MEL-5 > 10 µM | SNB-19 > 10 µM | SNB-75 > 10 µM | UACC-257 > 10 µM

C[C@]12CCC3[C@@H](CC[C@@H]4c5nonc5CC[C@]34C)C1CC[C@@H]2O (stereo not given in full)
inactive: A549 25.5 µM | CAKI-1 19.8 µM | HL-60 18.3 µM | LOX IMVI 19.6 µM | M19-MEL 48 µM | NCI-H226 38.3 µM | NCI-H460 25.9 µM | OVCAR-5 > 100 µM | SF-268 29.6 µM | SF-539 17.4 µM | SK-MEL-5 18.4 µM | SNB-19 41.6 µM | SNB-75 27.2 µM | UACC-257 19.8 µM
